# Experimental data reported in patent US11666650B2, “Immune composition comprising respiratory syncytial virus (RSV) G polypeptide” (ADVACCINE (SUZHOU) BIOPHARMACEUTICALS CO. LTD., priority 2019, dated 2023).
# Experiments:
# [1] = tested on: JAWSII cells; test: IL-1β inhibition in stimulated JAWSII cells; type: cell-based, mouse; details: immune regulator alone, LPS+Alum stimulated, 24 hours
# Procedure: JAWSII cells (mouse bone marrow cells) were recovery from liquid nitrogen and put into a water bath at 37° C. The cells were washed twice with the MEM media. The recovered cells were cultured in 10 mL cMEM (MEM+20% FBS+5 ng/mL rmGM-CSF) for 5-7 days. The cells were ready for use after 2 passages.
# The cell supernatant was collected for further analysis.
# Each supernatant noted above was centrifuged under 12000 rpm at 4° C. for 5 minutes. The level of IL-1β (an immune active biomarker) was measured following the ELISA procedure provided below.
# 15. Calculate the IL-1β concentration of tested subject by standard curve. Inhibition percentage (%) was calculated as the percentage of the reduction of IL-1β level of each tested sample as compared with the positive control (LPS+Alum) and the blank control.
# [2] = tested on: red blood cell suspension; test: Hemolytic assay of formulations; type: cell-based, Mouse
# Procedure: Mouse blood was collected and added with 800 μl of 15 mg/ml of EDTA to prevent the coagulation. It was centrifuged at 1,500 rpm for 15 min followed by discarding of the supernatant. The pellet was resuspended into 1 ml PBS, and centrifugated at 1,500 rpm for 15 min. The procedure was repeated for approximately 2 or 3 times until the supernatant became clear. The pellet containing red blood cells was resuspended with PBS at 1:10 to get 10% of red cell suspension after discarding supernatant, then further diluted into 2% with PBS. Five hundred microliters of 2% red blood cell suspension were mixed with 500 μl of different formulations, respectively, for a period of 180 minutes at 37° C. The hemolysis was recorded by a camera from the beginning to the end. After that, sample was centrifuged at 1,500 rpm for 2 min, the absorbance of supernatant was measured at OD405nm and the results were statistically analyzed.
SMILES,inhibition (immune suppression) of IL-1β level [1],hemolysis [2]
C=CC[C@@H]1/C=C(\C)C[C@H](C)C[C@H](OC)[C@H]2O[C@@](O)(C(=O)C(=O)N3CCCC[C@H]3C(=O)O[C@H](/C(C)=C/[C@@H]3CC[C@@H](O)[C@H](OC)C3)[C@H](C)[C@@H](O)CC1=O)[C@H](C)C[C@@H]2OC [FK506],around 100%,
CC(O)CO (stereo not drawn) [propylene glycol],,Various degrees of hemolysis
CO[C@H]1C[C@@H]2CC[C@@H](C)[C@@](O)(O2)C(=O)C(=O)N2CCCC[C@H]2C(=O)O[C@H]([C@H](C)C[C@@H]2CC[C@@H](O)[C@H](OC)C2)CC(=O)[C@H](C)/C=C(\C)[C@@H](O)[C@@H](OC)C(=O)[C@H](C)C[C@H](C)/C=C/C=C/C=C/1C [rapamycin],around 60%,
